Measurements reported in US7504096B1, “Methods for in vitro fertilization” (The United States of America as represented by the …, priority 1999, dated 2009).

System: ovariectomized mice
Experiment: Blastocyst implantation after embryo transfer in ovariectomized, steroid-primed mice (LIF as replacement for nidatory estrogen)
Assay type: in vivo
Details: for Nos. Implanted / Nos. Pregnant: E2 1 injection of 40 ng or LIF 3 injections of 5 μg 1 hour apart, analysis four days later
Experimental: Mice were ovariectomized and allowed to recover for 18 days before starting experimental manipulation. Priming of the uterus by steroid hormones was started by the injection of 100 ng of Estrogen on each of 3 consecutive days. On the 6th day the mice were given a single injection of Progesterone in the form of Depo-Provera. Three days later an average of 6 blastocysts, either directly isolated from females or from cultures started the previous day when the embryos were at the 8-cell stage were surgically transferred to the right uterine horn. After the mice had recovered from surgery they were either given 1 injection of 40 ng of estrogen or 3 injections, 1 hour apart, of 5 μg LIF. Four days later (equivalent to Day 7-8 of pregnancy) the mice were sacrificed for analysis, and the implantation sites recovered.

[1] = Blastocyst type at time of transfer: D4 cultured, E2 36 blastocysts (6 recipients), LIF 42 (7)
[2] = Blastocyst type at time of transfer: D4 direct, 36 blastocysts in 6 recipients

LIF: cytokine Leukemia Inhibitory Factor, recombinant, member of the IL-6 family of cytokines
Nos. Implanted [1]: 16 | Nos. Pregnant [1]: 5 | Nos. Implanted [2]: 30 | Nos. Pregnant [2]: 6 | Inducing embryo implantation in place of estrogen (result in words) (injection of LIF versus injection of estrogen, Table 1 protocol): can unequivocally replace the injection of estrogen for inducing embryo implantation
